Results: patent publication US4801456A, “Growth hormone-releasing factor analogs” (International Minerals & Chemical Corp., priority 1987, dated 1989)
Square brackets hold non-standard residues; d marks the D form. Peptide text beside a SMILES is read from it. Nle = CCCC[C@H](N)C(=O)O

Tested on: rat pituitary cells in tissue culture
Experiment: Bioassay of hGRF analogs: GH release from cultured pituitary cells
Type: cell-based
Settings: for Dose Needed to Release 2.01 μg/ml of GH (ED50 value for hGRF) / Maximum GH Released / Relative Maximum Activity (% of hGRF): from curves generated by ALLFIT; for GH release at dosages comparable to native hGRF: referring to Table 1; for Potency: (ED50 of hGRF)/(Dose required to give same response as ED50 of hGRF): relative to hGRF(1-44)-NH2 = 100
Text: The assay for biological activity, which is based on the ability to stimulate release of growth hormone in rat pituitary cells in tissue culture, has been described in detail (Culler, M. D.; Kenjo, T.: Obara, N.; Arimuar, A., Stimulation of cAMP. Accumulation by Human Pancreatic GH-Releasing Factor-(1-44). Am. J. Physiol. 1984, 247 (Endocrinol.Metab.10), E609-E615.
ALLFIT, the 4-parameter logistic curve fitting program available from the Biomedical Computer Technology Information Center, Vanderbilt Medical Center, Nashville TN, was used to determine ED50 and maximal stimulated values from the data. In several instances, the amount of GH released reached a maximum value and decreased with further increasing doses of the hGRF analogs. To simplify the data analysis, these values were not used in the calculations. The calculated maximal responses, the doses of the analog required to release the amount of GH released at the ED50 of the standard (hGRF) and the potencies of the analogs relative to hGRF, are given in Table 2. Generally all novel analogs were fully active and were able to stimulate the release of growth hormone with maximal values of GH release being within 80% of the value for natural hGRF.

SMILES | GH Released (mean ± (S.E.)) (Dose 1 × 10^-6 M) | GH Released (mean ± (S.E.)) (Dose 1 × 10^-7 M) | GH Released (mean ± (S.E.)) (Dose 1 × 10^-8 M) | GH Released (mean ± (S.E.)) (Dose 1 × 10^-9 M) | GH Released (mean ± (S.E.)) (Dose 1 × 10^-10 M) | GH Released (mean ± (S.E.)) (Dose 1 × 10^-11 M) | Dose Needed to Release 2.01 μg/ml of GH (ED50 value for hGRF) | Maximum GH Released | Relative Maximum Activity (% of hGRF) | GH release at dosages comparable to native hGRF | Potency: (ED50 of hGRF)/(Dose required to give same response as ED50 of hGRF) | Potency: (ED50 of hGRF)/(Dose required to give same response as ED50 of hGRF) (listed as [Asn^3,Asp^8,Asn^25,Nle^27 ]-hGRF(1-31)--NH2) | Potency: (ED50 of hGRF)/(Dose required to give same response as ED50 of hGRF) (listed as [Asn^3,Asp^8,Nle^27 ]-hGRF(1-31)--NH2)
CCCC[C@H](NC(=O)[C@@H](NC(=O)[C@H](CC(N)=O)NC(=O)[C@H](CCC(N)=O)NC(=O)[C@H](CC(C)C)NC(=O)[C@H](CC(C)C)NC(=O)[C@H](CCCCN)NC(=O)[C@H](CCCNC(=N)N)NC(=O)[C@H](C)NC(=O)[C@H](CO)NC(=O)[C@H](CC(C)C)NC(=O)[C@H](CCC(N)=O)NC(=O)CNC(=O)[C@H](CC(C)C)NC(=O)[C@@H](NC(=O)[C@H](CCCCN)NC(=O)[C@H](CCCNC(=N)N)NC(=O)[C@H](Cc1ccc(O)cc1)NC(=O)[C@H](CO)NC(=O)[C@H](CC(N)=O)NC(=O)[C@@H](NC(=O)[C@H](Cc1ccccc1)NC(=O)[C@@H](NC(=O)[C@H](C)NC(=O)[C@H](CC(N)=O)NC(=O)[C@H](C)NC(=O)[C@@H](N)Cc1ccc(O)cc1)[C@@H](C)CC)[C@@H](C)O)C(C)C)[C@@H](C)CC)C(=O)N[C@@H](CO)C(=O)N[C@@H](CCCNC(=N)N)C(=O)N[C@@H](CCC(N)=O)C(=O)N[C@@H](CCC(N)=O)C(N)=O [[Asn^3,Asn^25,Nle^27], [Asn^3,Asn^25,Nle^27]-hGRF(1-31)--NH2] (H-YANAIFTNSYRKVLGQLSARKLLQNI[Nle]SRQQ-NH2) | 2.96 (0.11) μg/mL | 3.30 (0.08) μg/mL | 3.21 (0.13) μg/mL | 1.58 (0.07) μg/mL | 0.81 (0.06) μg/mL | 0.65 (0.03) μg/mL | 1.54 nM | 3.33 µg/mL | 101% | induced GH release in dosages comparable to those for native hGRF | 21% |  | 
CCCC[C@H](NC(=O)[C@@H](NC(=O)[C@H](CC(N)=O)NC(=O)[C@H](CCC(N)=O)NC(=O)[C@H](CC(C)C)NC(=O)[C@H](CC(C)C)NC(=O)[C@H](CCCCN)NC(=O)[C@H](CCCNC(=N)N)NC(=O)[C@H](C)NC(=O)[C@H](CO)NC(=O)[C@H](CC(C)C)NC(=O)[C@H](CCC(N)=O)NC(=O)CNC(=O)[C@H](CC(C)C)NC(=O)[C@@H](NC(=O)[C@H](CCCCN)NC(=O)[C@H](CCCNC(=N)N)NC(=O)[C@H](Cc1ccc(O)cc1)NC(=O)[C@H](CO)NC(=O)[C@H](CC(=O)O)NC(=O)[C@@H](NC(=O)[C@H](Cc1ccccc1)NC(=O)[C@@H](NC(=O)[C@H](C)NC(=O)[C@H](CC(N)=O)NC(=O)[C@H](C)NC(=O)[C@@H](N)Cc1ccc(O)cc1)[C@@H](C)CC)[C@@H](C)O)C(C)C)[C@@H](C)CC)C(=O)N[C@@H](CO)C(=O)N[C@@H](CCCNC(=N)N)C(=O)N[C@@H](CCC(N)=O)C(=O)N[C@@H](CCC(N)=O)C(N)=O [[Asn^3,Asp^8,Asn^25,Nle^27], [Asn^3,Asp^8,Asn^25,Nle^27]-hGRF(1-31)--NH2] (H-YANAIFTDSYRKVLGQLSARKLLQNI[Nle]SRQQ-NH2) | 3.12 (0.12) μg/mL | 2.94 (0.11) μg/mL | 1.88 (0.07) μg/mL | 0.75 (0.01) μg/mL | 0.61 (0.05) μg/mL | 0.60 (0.02) μg/mL | 12.05 nM | 3.11 µg/mL | 94% | did not induce GH release at dosages comparable to native hGRF | 3% | 5% | 
CCCC[C@H](NC(=O)[C@@H](NC(=O)[C@H](CC(=O)O)NC(=O)[C@H](CCC(N)=O)NC(=O)[C@H](CC(C)C)NC(=O)[C@H](CC(C)C)NC(=O)[C@H](CCCCN)NC(=O)[C@H](CCCNC(=N)N)NC(=O)[C@H](C)NC(=O)[C@H](CO)NC(=O)[C@H](CC(C)C)NC(=O)[C@H](CCC(N)=O)NC(=O)CNC(=O)[C@H](CC(C)C)NC(=O)[C@@H](NC(=O)[C@H](CCCCN)NC(=O)[C@H](CCCNC(=N)N)NC(=O)[C@H](Cc1ccc(O)cc1)NC(=O)[C@H](CO)NC(=O)[C@H](CC(=O)O)NC(=O)[C@@H](NC(=O)[C@H](Cc1ccccc1)NC(=O)[C@@H](NC(=O)[C@H](C)NC(=O)[C@H](CC(N)=O)NC(=O)[C@H](C)NC(=O)[C@@H](N)Cc1ccc(O)cc1)[C@@H](C)CC)[C@@H](C)O)C(C)C)[C@@H](C)CC)C(=O)N[C@@H](CO)C(=O)N[C@@H](CCCNC(=N)N)C(=O)N[C@@H](CCC(N)=O)C(=O)N[C@@H](CCC(N)=O)C(N)=O [[Asn^3,Asp^8,Nle^27], [Asn^3,Asp^8,Nle^27]-hGRF(1-31)--NH2] (H-YANAIFTDSYRKVLGQLSARKLLQDI[Nle]SRQQ-NH2) | 2.74 (0.19) μg/mL | 3.30 (0.27) μg/mL | 2.27 (0.07) μg/mL | 1.04 (0.05) μg/mL | 0.58 (0.04) μg/mL | 0.65 (0.04) μg/mL | 6.74 nM | 3.53 µg/mL | 107% | did not induce GH release at dosages comparable to native hGRF | 5% |  | 3%
CCCC[C@H](NC(=O)[C@@H](NC(=O)[C@H](CC(=O)O)NC(=O)[C@H](CCC(N)=O)NC(=O)[C@H](CC(C)C)NC(=O)[C@H](CC(C)C)NC(=O)[C@H](CCCCN)NC(=O)[C@H](CCCNC(=N)N)NC(=O)[C@H](C)NC(=O)[C@H](CO)NC(=O)[C@H](CC(C)C)NC(=O)[C@H](CCC(N)=O)NC(=O)CNC(=O)[C@H](CC(C)C)NC(=O)[C@@H](NC(=O)[C@H](CCCCN)NC(=O)[C@H](CCCNC(=N)N)NC(=O)[C@H](Cc1ccc(O)cc1)NC(=O)[C@H](CO)NC(=O)[C@H](CC(N)=O)NC(=O)[C@@H](NC(=O)[C@H](Cc1ccccc1)NC(=O)[C@@H](NC(=O)[C@H](C)NC(=O)[C@H](CC(N)=O)NC(=O)[C@H](C)NC(=O)[C@@H](N)Cc1ccc(O)cc1)[C@@H](C)CC)[C@@H](C)O)C(C)C)[C@@H](C)CC)C(=O)N[C@@H](CO)C(=O)N[C@@H](CCCNC(=N)N)C(=O)N[C@@H](CCC(N)=O)C(=O)N[C@@H](CCC(N)=O)C(N)=O [[Asn^3,Nle^27], [Asn^3, Nle^27]-hGRF(1-31)--NH2] (H-YANAIFTNSYRKVLGQLSARKLLQDI[Nle]SRQQ-NH2) | 3.22 (0.16) μg/mL | 3.05 (0.09) μg/mL | 2.90 (0.12) μg/mL | 2.40 (0.06) μg/mL | 0.97 (0.01) μg/mL | 0.67 (0.08) μg/mL | 0.58 nM | 3.09 µg/mL | 93% | induced GH release in dosages comparable to those for native hGRF | 55% |  | 
